Converted amounts (≈) assume the structure as drawn.
Columns and labels:
Assay type in all cases: cell-based
M. suipneumoniae NB12 = assay: Anti-mycoplasmal in vitro MIC; conditions: Mesomycoplasma hyopneumoniae, 144 h, Friis broth solidified with 0.9% agarose, 6 days incubation at 37°C
[1] = tested on: M. suipneumoniae NCTC 10110; assay: Anti-mycoplasmal in vitro MIC; conditions: Mesomycoplasma hyopneumoniae, NCTC10110, 144 h, Friis broth solidified with 0.9% agarose, 6 days incubation at 37°C
M. dispar NCTC 10125 = assay: Anti-mycoplasmal in vitro MIC; conditions: 144 h, Friis broth solidified with 0.9% agarose, 6 days incubation at 37°C
M. gallisepticum S6 = assay: Anti-mycoplasmal in vitro MIC; conditions: Mycoplasmoides gallisepticum, 144 h, Friis broth solidified with 0.9% agarose, 6 days incubation at 37°C
M. pneumoniae ATCC 15492 = assay: Anti-mycoplasmal in vitro MIC; conditions: Mycoplasmoides pneumoniae, ATCC15492, 144 h, Friis broth solidified with 0.9% agarose, 6 days incubation at 37°C
Bord. bronchiseptica BO8 = assay: Veterinary bacteria MIC; conditions: Bordetella bronchiseptica, Diagnostic Sensitivity Test Agar, 18 hours at 37°C
Procedure: (§1) The values were determined using a two fold serial dilutions.in Diagnostic Sensitivity Test Agar with an inoculum of 10^4 organisms and incubation for 18 hours at 37°C.

Bord. bronchiseptica BO9 = assay: Veterinary bacteria MIC; conditions: Bordetella bronchiseptica, Diagnostic Sensitivity Test Agar, 18 hours at 37°C
Procedure: as §1

[2] = tested on: Corynebacterium pyogenes CY1; assay: Veterinary bacteria MIC; conditions: Trueperella pyogenes, Diagnostic Sensitivity Test Agar, 18 hours at 37°C
Procedure: as §1

E. Coli E1 = assay: Veterinary bacteria MIC; conditions: Escherichia coli, Diagnostic Sensitivity Test Agar, 18 hours at 37°C
Procedure: as §1

E. Coli NCTC 10418 [3] = assay: Veterinary bacteria MIC; conditions: Escherichia coli, NCTC10418, Diagnostic Sensitivity Test Agar, 18 hours at 37°C
Procedure: as §1

[4] = tested on: Erysipelothrix rhusiopathiae NCTC 8163; assay: Veterinary bacteria MIC; conditions: NCTC8163, Diagnostic Sensitivity Test Agar, 18 hours at 37°C
Procedure: as §1

Past. haemolytica PA5 = assay: Veterinary bacteria MIC; conditions: Mannheimia haemolytica, Diagnostic Sensitivity Test Agar, 18 hours at 37°C
Procedure: as §1

Past. multocida PA1 = assay: Veterinary bacteria MIC; conditions: Pasteurella multocida, Diagnostic Sensitivity Test Agar, 18 hours at 37°C
Procedure: as §1

Past. multocida PA2 = assay: Veterinary bacteria MIC; conditions: Pasteurella multocida, Diagnostic Sensitivity Test Agar, 18 hours at 37°C
Procedure: as §1

S. dublin S7 = assay: Veterinary bacteria MIC; conditions: Salmonella enterica, Diagnostic Sensitivity Test Agar, 18 hours at 37°C
Procedure: as §1

S. typhimurium S18 = assay: Veterinary bacteria MIC; conditions: Salmonella enterica, Diagnostic Sensitivity Test Agar, 18 hours at 37°C
Procedure: as §1

Staph. aureus 152 = assay: Veterinary bacteria MIC; conditions: Staphylococcus aureus, Diagnostic Sensitivity Test Agar, 18 hours at 37°C
Procedure: as §1

Staph. aureus B4 = assay: Veterinary bacteria MIC; conditions: Staphylococcus aureus, Diagnostic Sensitivity Test Agar, 18 hours at 37°C
Procedure: as §1

Strep. agalactiae SPA1 = assay: Veterinary bacteria MIC; conditions: Streptococcus agalactiae, Diagnostic Sensitivity Test Agar, 18 hours at 37°C
Procedure: as §1

Strep. dysgalactiae SPD1 = assay: Veterinary bacteria MIC; conditions: Streptococcus dysgalactiae, Diagnostic Sensitivity Test Agar, 18 hours at 37°C
Procedure: as §1

[5] = tested on: Strep. suis (group D) SPS11; assay: Veterinary bacteria MIC; conditions: Streptococcus suis, Diagnostic Sensitivity Test Agar, 18 hours at 37°C
Procedure: as §1

Strep. uberis SPU1 = assay: Veterinary bacteria MIC; conditions: Streptococcus uberis, Diagnostic Sensitivity Test Agar, 18 hours at 37°C
Procedure: as §1

Bacillus subtilis 6633 = assay: Human bacteria MIC; conditions: nutrient agar with 5% chocolated horse blood, 18 hours at 37°C
Procedure: (§2) The values were determined by serial dilutions in nutrient agar with 5% chocolated horse blood after incubations for 18 hours at 37 °C.

[6] = tested on: Corynebacterium xerosis 9755; assay: Human bacteria MIC; conditions: nutrient agar with 5% chocolated horse blood, 18 hours at 37°C
Procedure: as §2

E. Coli NCTC 10418 [7] = assay: Human bacteria MIC; conditions: Escherichia coli, NCTC10418, nutrient agar with 5% chocolated horse blood, 18 hours at 37°C
Procedure: as §2

E. coli ESS = assay: Human bacteria MIC; conditions: Escherichia coli, nutrient agar with 5% chocolated horse blood, 18 hours at 37°C
Procedure: as §2

K. aerogenes A = assay: Human bacteria MIC; conditions: Klebsiella aerogenes, nutrient agar with 5% chocolated horse blood, 18 hours at 37°C
Procedure: as §2

[8] = tested on: Neisseria catarrhalis 1502; assay: Human bacteria MIC; conditions: nutrient agar with 5% chocolated horse blood, 18 hours at 37°C
Procedure: as §2

P. mirabilis 889 = assay: Human bacteria MIC; conditions: Proteus mirabilis, nutrient agar with 5% chocolated horse blood, 18 hours at 37°C
Procedure: as §2

[9] = tested on: Pasteurella multocida 1633; assay: Human bacteria MIC; conditions: nutrient agar with 5% chocolated horse blood, 18 hours at 37°C
Procedure: as §2

[10] = tested on: Ps. aeruginosa NCTC 10662; assay: Human bacteria MIC; conditions: Pseudomonas aeruginosa, NCTC10662, nutrient agar with 5% chocolated horse blood, 18 hours at 37°C
Procedure: as §2

Sarcina lutea 8340 = assay: Human bacteria MIC; conditions: Micrococcus luteus, nutrient agar with 5% chocolated horse blood, 18 hours at 37°C
Procedure: as §2

Staph. aureus Oxford = assay: Human bacteria MIC; conditions: Staphylococcus aureus, nutrient agar with 5% chocolated horse blood, 18 hours at 37°C
Procedure: as §2

Staph. aureus Russell = assay: Human bacteria MIC; conditions: Staphylococcus aureus, nutrient agar with 5% chocolated horse blood, 18 hours at 37°C
Procedure: as §2

Staph. aureus W2827 = assay: Human bacteria MIC; conditions: Staphylococcus aureus, nutrient agar with 5% chocolated horse blood, 18 hours at 37°C
Procedure: as §2

Strep. 641848-C = assay: Human bacteria MIC; conditions: nutrient agar with 5% chocolated horse blood, 18 hours at 37°C
Procedure: as §2

Strep. faecalis I = assay: Human bacteria MIC; conditions: Enterococcus faecalis, nutrient agar with 5% chocolated horse blood, 18 hours at 37°C
Procedure: as §2

| SMILES | MIC (M. suipneumoniae NB12) | MIC [1] | MIC (M. dispar NCTC 10125) | MIC (M. gallisepticum S6) | MIC (M. pneumoniae ATCC 15492) | MIC (Bord. bronchiseptica BO8) | MIC (Bord. bronchiseptica BO9) | MIC [2] | MIC (E. Coli E1) | MIC (E. Coli NCTC 10418 [3]) | MIC [4] | MIC (Past. haemolytica PA5) | MIC (Past. multocida PA1) | MIC (Past. multocida PA2) | MIC (S. dublin S7) | MIC (S. typhimurium S18) | MIC (Staph. aureus 152) | MIC (Staph. aureus B4) | MIC (Strep. agalactiae SPA1) | MIC (Strep. dysgalactiae SPD1) | also measured |
| --- | --- | --- | --- | --- | --- | --- | --- | --- | --- | --- | --- | --- | --- | --- | --- | --- | --- | --- | --- | --- | --- |
| C/C(=C\C(=O)OCc1cccc(C#N)c1)CC1OCC(C/C=C/C(C)C(C)O)C(O)C1O (centres unmarked) [Example 5, m-Cyanobenzyl monate C] | 0.5 mg/L (≈ 1.13 µM) | 1 mg/L (≈ 2.25 µM) | 0.1 mg/L (≈ 0.225 µM) | 10 mg/L (≈ 22.5 µM) | 5 mg/L (≈ 11.3 µM) | > 80 mg/L | 20 mg/L (≈ 45.1 µM) | > 80 mg/L | > 80 mg/L | > 80 mg/L | 80 mg/L (≈ 180 µM) | 40 mg/L (≈ 90.2 µM) | 10 mg/L (≈ 22.5 µM) | 5 mg/L (≈ 11.3 µM) | > 80 mg/L | > 80 mg/L | 2.5 mg/L (≈ 5.64 µM) | 2.5 mg/L (≈ 5.64 µM) | 2.5 mg/L (≈ 5.64 µM) | 0.156 mg/L (≈ 0.352 µM) | MIC [5]: > 80 mg/L; MIC (Strep. uberis SPU1): 0.156 mg/L (≈ 0.352 µM); MIC (Bacillus subtilis 6633): 2.5 mg/L (≈ 5.64 µM); MIC [6]: > 100 mg/L; MIC (E. Coli NCTC 10418 [7]): > 100 mg/L; MIC (E. coli ESS): 5 mg/L (≈ 11.3 µM); MIC (K. aerogenes A): > 100 mg/L; MIC [8]: 2.5 mg/L (≈ 5.64 µM); MIC (P. mirabilis 889): > 100 mg/L; MIC [9]: 10 mg/L (≈ 22.5 µM); MIC [10]: > 100 mg/L; MIC (Sarcina lutea 8340): > 100 mg/L; MIC (Staph. aureus Oxford): 2.5 mg/L (≈ 5.64 µM); MIC (Staph. aureus Russell): 2.5 mg/L (≈ 5.64 µM); MIC (Staph. aureus W2827): 2.5 mg/L (≈ 5.64 µM); MIC (Strep. 641848-C): 2.5 mg/L (≈ 5.64 µM); MIC (Strep. faecalis I): > 100 mg/L |
| C/C(=C\C(=O)OC(C)c1ccc(C#N)cc1)CC1OCC(CC2OC2C(C)C(C)O)C(O)C1O (centres unmarked) [Example 4, 1-(p-Cyanophenyl)ethyl monate A] | 1 mg/L (≈ 2.11 µM) | 2.5 mg/L (≈ 5.28 µM) | 0.5 mg/L (≈ 1.06 µM) | 10 mg/L (≈ 21.1 µM) | 5 mg/L (≈ 10.6 µM) | 80 mg/L (≈ 169 µM) | 20 mg/L (≈ 42.2 µM) | > 80 mg/L | > 80 mg/L | > 80 mg/L | 40 mg/L (≈ 84.5 µM) | 40 mg/L (≈ 84.5 µM) | 10 mg/L (≈ 21.1 µM) | < 0.019 mg/L | > 80 mg/L | > 80 mg/L | 5 mg/L (≈ 10.6 µM) | 10 mg/L (≈ 21.1 µM) | 10 mg/L (≈ 21.1 µM) | 1.25 mg/L (≈ 2.64 µM) | MIC [5]: 20 mg/L (≈ 42.2 µM); MIC (Strep. uberis SPU1): 1.25 mg/L (≈ 2.64 µM); MIC (Bacillus subtilis 6633): 1 mg/L (≈ 2.11 µM); MIC [6]: > 100 mg/L; MIC (E. Coli NCTC 10418 [7]): > 100 mg/L; MIC (E. coli ESS): 2.5 mg/L (≈ 5.28 µM); MIC (K. aerogenes A): > 100 mg/L; MIC [8]: 0.5 mg/L (≈ 1.06 µM); MIC (P. mirabilis 889): > 100 mg/L; MIC [9]: 10 mg/L (≈ 21.1 µM); MIC [10]: > 100 mg/L; MIC (Sarcina lutea 8340): > 100 mg/L; MIC (Staph. aureus Oxford): 2.5 mg/L (≈ 5.28 µM); MIC (Staph. aureus Russell): 5 mg/L (≈ 10.6 µM); MIC (Staph. aureus W2827): 5 mg/L (≈ 10.6 µM); MIC (Strep. 641848-C): 2.5 mg/L (≈ 5.28 µM); MIC (Strep. faecalis I): > 100 mg/L |

— patent EP0052437A1, “Antibacterial compounds, processes for their preparation and compositions containing them” (BEECHAM GROUP PLC, priority 1980, dated 1982)
